Experiments:
[1] = Carbohydrazide low temperature hydrolysis (Table V); assay type: physicochemical; design: Hydrazine By Hydrolysis: unit not given here; settings: for Hydrazine By Hydrolysis / Percent Hydrolysis / ppm Hydrazine: 1,000 ppm
Protocol: Low temperature hydrolysis studies of carbohydrazide were carried out using reagent grade carbohydrazide containing approximately 2.7±0.1% hydrazine as an impurity. A 1,000 ppm carbohydrazide solution and a 100 ppm hydrazine solution were prepared with deaerated, deionized water. Half of the carbohydrazide solution was adjusted to pH 10.2 with sodium hydroxide and the other half was left at its original pH of 6.9. The solutions were poured into Nessler tubes to overflowing and sealed with stoppers fitted with hypodermic needles to allow pressure release with minimum air contact. Four samples of both of the carbohydrazide solutions and two samples of the hydrazine control were stored at varying temperatures for varying periods of time, all as reported in Table V below.

[2] = Solubility in water; assay type: physicochemical
[3] = Corrosion control under static storage conditions; settings: 160 moles or more of carbohydrazide per mole of oxygen
Source text: The amount of carbohydrazide required to effectively scavenge oxygen from the boiler water is dependent upon the amount of oxygen actually present therein. It is generally desirable that at least 0.5 moles of carbohydrazide be used per mole of oxygen. These minimum levels of carbohydrazide will have the added benefit of effectively passivating metal surfaces. Of course, levels of carbohydrazide considerably in excess of 0.5 moles per mole of oxygen may be required, particularly for treating boiler water under static storage conditions.

[4] = pH 6.9, Room Temp. (77° F.), 2 days
[5] = pH 6.9, Room Temp. (77° F.), 4 days
[6] = pH 6.9, Room Temp. (77° F.), 6 days
[7] = pH 10.2, Room Temp. (77° F.), 2 days
[8] = pH 10.2, Room Temp. (77° F.), 4 days
[9] = pH 10.2, Room Temp. (77° F.), 6 days

NNC(=O)NN [Carbohydrazide, N, N' diaminourea]
Hydrolysis at 120° F. ([1]; 120° F.): no hydrolysis occured | Hydrolysis above the original free hydrazine level ([1]; 180° F.): 3% | Hydrazine By Hydrolysis ([1]; pH 6.9, 120° F., 2 days): 0 | Percent Hydrolysis ([1]; pH 6.9, 120° F., 2 days): 2.7% | ppm Hydrazine ([1]; pH 6.9, 120° F., 2 days): 18.9 ppm | Hydrazine By Hydrolysis ([1]; pH 6.9, 120° F., 4 days): 0 | Percent Hydrolysis ([1]; pH 6.9, 120° F., 4 days): 2.6% | ppm Hydrazine ([1]; pH 6.9, 120° F., 4 days): 18.8 ppm | Hydrazine By Hydrolysis ([1]; pH 6.9, 120° F., 6 days): 0 | Percent Hydrolysis ([1]; pH 6.9, 120° F., 6 days): 2.6% | ppm Hydrazine ([1]; pH 6.9, 120° F., 6 days): 18.3 ppm | Hydrazine By Hydrolysis ([1]; pH 6.9, 180° F., 2 days): 1.3 | Percent Hydrolysis ([1]; pH 6.9, 180° F., 2 days): 4.0% | ppm Hydrazine ([1]; pH 6.9, 180° F., 2 days): 28.4 ppm | Hydrazine By Hydrolysis ([1]; pH 6.9, 180° F., 4 days): 2.3 | Percent Hydrolysis ([1]; pH 6.9, 180° F., 4 days): 5.0% | ppm Hydrazine ([1]; pH 6.9, 180° F., 4 days): 35.4 ppm | Hydrazine By Hydrolysis ([1]; pH 6.9, 180° F., 6 days): 3.0 | Percent Hydrolysis ([1]; pH 6.9, 180° F., 6 days): 5.7% | ppm Hydrazine ([1]; pH 6.9, 180° F., 6 days): 40.2 ppm | Hydrazine By Hydrolysis [1, 4]: 0 | Percent Hydrolysis [1, 4]: 2.8% | ppm Hydrazine [1, 4]: 19.7 ppm | Hydrazine By Hydrolysis [1, 5]: 0 | Percent Hydrolysis [1, 5]: 2.7% | ppm Hydrazine [1, 5]: 19.1 ppm | Hydrazine By Hydrolysis [1, 6]: 0 | Percent Hydrolysis [1, 6]: 2.6% | ppm Hydrazine [1, 6]: 18,7 ppm | Hydrazine By Hydrolysis ([1]; pH 6.9, time 0): 0 | Percent Hydrolysis ([1]; pH 6.9, time 0): 2.7% | ppm Hydrazine ([1]; pH 6.9, time 0): 19.0 ppm | Hydrazine By Hydrolysis ([1]; pH 10.2, 120° F., 2 days): 0 | Percent Hydrolysis ([1]; pH 10.2, 120° F., 2 days): 2.8% | ppm Hydrazine ([1]; pH 10.2, 120° F., 2 days): 20.0 ppm | Hydrazine By Hydrolysis ([1]; pH 10.2, 120° F., 4 days): 0 | Percent Hydrolysis ([1]; pH 10.2, 120° F., 4 days): 2.8% | ppm Hydrazine ([1]; pH 10.2, 120° F., 4 days): 19.8 ppm | Hydrazine By Hydrolysis ([1]; pH 10.2, 120° F., 6 days): 0 | Percent Hydrolysis ([1]; pH 10.2, 120° F., 6 days): 2.7% | ppm Hydrazine ([1]; pH 10.2, 120° F., 6 days): 19.3 ppm | Hydrazine By Hydrolysis ([1]; pH 10.2, 180° F., 2 days): 1.4 | Percent Hydrolysis ([1]; pH 10.2, 180° F., 2 days): 4.1% | ppm Hydrazine ([1]; pH 10.2, 180° F., 2 days): 29.0 ppm | Hydrazine By Hydrolysis ([1]; pH 10.2, 180° F., 4 days): 2.1 | Percent Hydrolysis ([1]; pH 10.2, 180° F., 4 days): 4.8% | ppm Hydrazine ([1]; pH 10.2, 180° F., 4 days): 34.2 ppm | Hydrazine By Hydrolysis ([1]; pH 10.2, 180° F., 6 days): 2.7 | Percent Hydrolysis ([1]; pH 10.2, 180° F., 6 days): 5.4% | ppm Hydrazine ([1]; pH 10.2, 180° F., 6 days): 38.6 ppm | Hydrazine By Hydrolysis [1, 7]: 0 | Percent Hydrolysis [1, 7]: 2.8% | ppm Hydrazine [1, 7]: 20.2 ppm | Hydrazine By Hydrolysis [1, 8]: 0.1 | Percent Hydrolysis [1, 8]: 2.9% | ppm Hydrazine [1, 8]: 20.5 ppm | Hydrazine By Hydrolysis [1, 9]: 0 | Percent Hydrolysis [1, 9]: 2.8% | ppm Hydrazine [1, 9]: 20.1 ppm | Hydrazine By Hydrolysis ([1]; pH 10.2, time 0): 0 | Percent Hydrolysis ([1]; pH 10.2, time 0): 2.7% | ppm Hydrazine ([1]; pH 10.2, time 0): 19.1 ppm | pH dependence of hydrolysis values ([1]; pH range of 7-10): did not vary significantly | Hydrolysis at room temperature ([1]; room temperature): no hydrolysis occured | Solubility in water [2]: freely soluble in water | Corrosion control under static conditions [3]: effective in controlling corrosion
